In PubChem BioAssay (NCI):
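Briefly, cells in 96-well plates were exposed to five compound concentrations for 48 h, and endpoints were estimated by linear interpolation. GI50 = concentration required for 50% inhibition of growth. The concentration for full growth arrest is given as TGI.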

Legend:
Test in all cases: growth of human tumour cells (NCI), 48 h
UACC-257 melanoma = system: UACC-257 melanoma
CCRF-CEM leukemia = system: CCRF-CEM leukemia
HS 578T breast = system: HS 578T breast
SK-MEL-28 melanoma = system: SK-MEL-28 melanoma
COLO 205 colon = system: COLO 205 colon
HCC-2998 colon = system: HCC-2998 colon
SF-268 CNS = system: SF-268 CNS
ACHN renal = system: ACHN renal
LOX IMVI melanoma = system: LOX IMVI melanoma
HCT-15 colon = system: HCT-15 colon
T-47D breast = system: T-47D breast
SK-MEL-5 melanoma = system: SK-MEL-5 melanoma
TK-10 renal = system: TK-10 renal
NCI-H226 lung = system: NCI-H226 lung
MDA-MB-435 = system: MDA-MB-435
K-562 leukemia = system: K-562 leukemia
DU-145 prostate = system: DU-145 prostate
SK-OV-3 ovarian = system: SK-OV-3 ovarian
SW-620 colon = system: SW-620 colon
EKVX NSCLC = system: EKVX NSCLC
HT29 colon = system: HT29 colon
UO-31 renal = system: UO-31 renal
M14 melanoma = system: M14 melanoma
A498 renal = system: A498 renal
OVCAR-8 ovarian = system: OVCAR-8 ovarian
786-0 renal = system: 786-0 renal
OVCAR-3 ovarian = system: OVCAR-3 ovarian
NCI/ADR-RES ovarian = system: NCI/ADR-RES ovarian
RPMI-8226 leukemia = system: RPMI-8226 leukemia
KM12 colon = system: KM12 colon
SNB-75 CNS = system: SNB-75 CNS
NCI-H522 lung = system: NCI-H522 lung
MCF7 breast = system: MCF7 breast
MALME-3M melanoma = system: MALME-3M melanoma
SF-539 CNS = system: SF-539 CNS
BT-549 breast = system: BT-549 breast
SNB-19 CNS = system: SNB-19 CNS
NCI-H23 lung = system: NCI-H23 lung
MDA-MB-231 breast = system: MDA-MB-231 breast
SR leukemia = system: SR leukemia
A549 NSCLC = system: A549 NSCLC
SN12C renal = system: SN12C renal
SF-295 CNS = system: SF-295 CNS
IGROV1 ovarian = system: IGROV1 ovarian
OVCAR-5 ovarian = system: OVCAR-5 ovarian
HOP-92 NSCLC = system: HOP-92 NSCLC
HCT-116 colon = system: HCT-116 colon
PC-3 prostate = system: PC-3 prostate
MOLT-4 leukemia = system: MOLT-4 leukemia
U251 CNS = system: U251 CNS
NCI-H460 lung = system: NCI-H460 lung
UACC-62 melanoma = system: UACC-62 melanoma
OVCAR-4 ovarian = system: OVCAR-4 ovarian
RXF 393 renal = system: RXF 393 renal
HOP-62 NSCLC = system: HOP-62 NSCLC

Work on `O=C(Nc1nc2c(C(F)(F)F)cccc2s1)c1cc(Cl)ccc1O` yielded a GI50 (UACC-257 melanoma) of 0.273 µM, a TGI (UACC-257 melanoma) of 0.821 µM and a GI50 (CCRF-CEM leukemia) of 0.328 µM. The TGI (CCRF-CEM leukemia) was 12.5 µM, the GI50 (HS 578T breast) was 0.268 µM and the TGI (HS 578T breast) was 26.3 µM. It also gave a GI50 (SK-MEL-28 melanoma) of 0.331 µM, a TGI (SK-MEL-28 melanoma) of 8.18 µM and a GI50 (COLO 205 colon) of 0.52 µM. The TGI (COLO 205 colon) was 2.42 µM, the GI50 (HCC-2998 colon) was 0.451 µM and the TGI (HCC-2998 colon) was 14.1 µM. For the same molecule, the GI50 (SF-268 CNS) was 0.422 µM, the TGI (SF-268 CNS) was > 100 µM and the GI50 (ACHN renal) was 0.295 µM. It also gave a TGI (ACHN renal) of 0.961 µM, a GI50 (LOX IMVI melanoma) of 0.32 µM and a TGI (LOX IMVI melanoma) of 10.8 µM. The GI50 (HCT-15 colon) was 0.338 µM, the TGI (HCT-15 colon) was 13.2 µM and the GI50 (T-47D breast) was 0.245 µM. The TGI (T-47D breast) was 0.783 µM, the GI50 (SK-MEL-5 melanoma) was 0.193 µM and the TGI (SK-MEL-5 melanoma) was 0.446 µM. For the same molecule, the GI50 (TK-10 renal) was 0.365 µM, the TGI (TK-10 renal) was 10.7 µM and the GI50 (NCI-H226 lung) was 0.269 µM. For the same molecule, the TGI (NCI-H226 lung) was 1.31 µM, the GI50 (MDA-MB-435) was 0.323 µM and the TGI (MDA-MB-435) was > 100 µM. The GI50 (K-562 leukemia) was 0.327 µM, the TGI (K-562 leukemia) was > 100 µM and the GI50 (DU-145 prostate) was 0.466 µM. For the same molecule, the TGI (DU-145 prostate) was > 100 µM, the GI50 (SK-OV-3 ovarian) was 0.236 µM and the TGI (SK-OV-3 ovarian) was 0.797 µM. For the same molecule, the GI50 (SW-620 colon) was 0.364 µM, the TGI (SW-620 colon) was 16.3 µM and the GI50 (EKVX NSCLC) was 0.25 µM. The TGI (EKVX NSCLC) was 5.75 µM, the GI50 (HT29 colon) was 0.44 µM and the TGI (HT29 colon) was 13 µM. For the same molecule, the GI50 (UO-31 renal) was 0.265 µM, the TGI (UO-31 renal) was 11.7 µM and the GI50 (M14 melanoma) was 0.35 µM. For the same molecule, the TGI (M14 melanoma) was 22.8 µM, the GI50 (A498 renal) was 0.181 µM and the TGI (A498 renal) was 0.519 µM. The GI50 (OVCAR-8 ovarian) was 0.326 µM, the TGI (OVCAR-8 ovarian) was 53.8 µM and the GI50 (786-0 renal) was 0.337 µM. The TGI (786-0 renal) was 12.2 µM, the GI50 (OVCAR-3 ovarian) was 0.375 µM and the TGI (OVCAR-3 ovarian) was 74.7 µM. It also gave a GI50 (NCI/ADR-RES ovarian) of 0.311 µM, a TGI (NCI/ADR-RES ovarian) of 21.6 µM and a GI50 (RPMI-8226 leukemia) of 0.203 µM. It also gave a TGI (RPMI-8226 leukemia) of 0.52 µM, a GI50 (KM12 colon) of 0.363 µM and a TGI (KM12 colon) of 11.8 µM. For the same molecule, the GI50 (SNB-75 CNS) was 0.262 µM, the TGI (SNB-75 CNS) was 41.6 µM and the GI50 (NCI-H522 lung) was 0.285 µM. It also gave a TGI (NCI-H522 lung) of 14 µM, a GI50 (MCF7 breast) of 0.302 µM and a TGI (MCF7 breast) of 27.5 µM. It also gave a GI50 (MALME-3M melanoma) of 0.231 µM, a TGI (MALME-3M melanoma) of 0.641 µM and a GI50 (SF-539 CNS) of 0.286 µM. For the same molecule, the TGI (SF-539 CNS) was 1.96 µM, the GI50 (BT-549 breast) was 0.305 µM and the TGI (BT-549 breast) was 1.79 µM. For the same molecule, the GI50 (SNB-19 CNS) was 0.345 µM, the TGI (SNB-19 CNS) was 65.6 µM and the GI50 (NCI-H23 lung) was 0.296 µM. The TGI (NCI-H23 lung) was 1.44 µM, the GI50 (MDA-MB-231 breast) was 0.27 µM and the TGI (MDA-MB-231 breast) was 0.952 µM. For the same molecule, the GI50 (SR leukemia) was 0.353 µM, the TGI (SR leukemia) was 3.28 µM and the GI50 (A549 NSCLC) was 0.316 µM. For the same molecule, the TGI (A549 NSCLC) was > 100 µM, the GI50 (SN12C renal) was 0.289 µM and the TGI (SN12C renal) was 1.53 µM. For the same molecule, the GI50 (SF-295 CNS) was 0.232 µM, the TGI (SF-295 CNS) was 0.707 µM and the GI50 (IGROV1 ovarian) was 0.511 µM. The TGI (IGROV1 ovarian) was 35 µM, the GI50 (OVCAR-5 ovarian) was 0.317 µM and the TGI (OVCAR-5 ovarian) was 25.7 µM. The GI50 (HOP-92 NSCLC) was 0.188 µM, the TGI (HOP-92 NSCLC) was 0.705 µM and the GI50 (HCT-116 colon) was 0.352 µM. It also gave a TGI (HCT-116 colon) of 11.2 µM, a GI50 (PC-3 prostate) of 0.302 µM and a TGI (PC-3 prostate) of 30.3 µM. It also gave a GI50 (MOLT-4 leukemia) of 0.318 µM, a TGI (MOLT-4 leukemia) of 1.21 µM and a GI50 (U251 CNS) of 0.312 µM. For the same molecule, the TGI (U251 CNS) was 42.6 µM, the GI50 (NCI-H460 lung) was 0.32 µM and the TGI (NCI-H460 lung) was 10.8 µM. It also gave a GI50 (UACC-62 melanoma) of 0.252 µM, a TGI (UACC-62 melanoma) of 0.957 µM and a GI50 (OVCAR-4 ovarian) of 0.34 µM. For the same molecule, the TGI (OVCAR-4 ovarian) was > 100 µM, the GI50 (RXF 393 renal) was 0.257 µM and the TGI (RXF 393 renal) was 0.772 µM. The GI50 (HOP-62 NSCLC) was 0.312 µM and the TGI (HOP-62 NSCLC) was 19.3 µM.
